Assay results: PubChem BioAssay AID248 (DTP/NCI, 2004)
“And” between values parts separate entries of the source, which are not always exact repeats. Identical values can stand only once. Toxic doses and inconclusive results are not listed. Rule as the data show it: active = T/C of 150% or more; inactive = T/C below 125%.

Tested on: L1210 leukemia ip in BDF1 mice, survival T/C
Assay: NCI In Vivo Anticancer Drug Screen. Data for tumor model L1210 Leukemia (intraperitoneal) in B6D2F1 (BDF1) mice
Conditions: higher = longer survival
Outline: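 Tumor was transplanted into mice, which were then dosed with test compound or vehicle alone. Survival was recorded for each group, and the treated figure was expressed relative to the control figure.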

[1] = endpoint: mean survival time, dose: 100.0 mg/kg/injection, schedule: Q04DX003 (ip), vehicle: Klucel (hydroxypropylcellulose) (HPC)
[2] = endpoint: mean survival time, dose: 200.0 mg/kg/injection, schedule: Q04DX003 (ip), vehicle: Klucel (hydroxypropylcellulose) (HPC)
[3] = endpoint: mean survival time, dose: 400.0 mg/kg/injection, schedule: Q04DX003 (ip), vehicle: Klucel (hydroxypropylcellulose) (HPC)
[4] = endpoint: mean survival time, dose: 2.5 mg/kg/injection, schedule: Q01DX009 (ip), vehicle: saline
[5] = endpoint: mean survival time, dose: 2.5 mg/kg/injection, schedule: Q04DX003 (ip), vehicle: saline
[6] = endpoint: mean survival time, dose: 5.0 mg/kg/injection, schedule: Q04DX003 (ip), vehicle: saline
[7] = endpoint: mean survival time, dose: 100.0 mg/kg/injection, schedule: Q01DX001 (ip), vehicle: saline
[8] = endpoint: mean survival time, dose: 200.0 mg/kg/injection, schedule: Q01DX001 (ip), vehicle: saline
[9] = endpoint: mean survival time, dose: 400.0 mg/kg/injection, schedule: Q01DX001 (ip), vehicle: saline
[10] = endpoint: mean survival time, dose: 100.0 mg/kg/injection, schedule: Q01DX009 (ip), vehicle: saline
[11] = endpoint: mean survival time, dose: 14.6 mg/kg/injection, schedule: Q01DX Z (ip), vehicle: carboxymethylcellulose (CMC)
[12] = endpoint: mean survival time, dose: 22.0 mg/kg/injection, schedule: Q01DX Z (ip), vehicle: carboxymethylcellulose (CMC)
[13] = endpoint: mean survival time, dose: 100.0 mg/kg/injection, schedule: Q01DX009 (ip), vehicle: saline with Tween-80
[14] = endpoint: mean survival time, dose: 200.0 mg/kg/injection, schedule: Q01DX009 (ip), vehicle: saline with Tween-80

Measured: T/C

O=C(/C(=N/Nc1ccccc1)c1ccccc1)c1ccccc1
inactive: endpoint: mean survival time, dose: 25.0 mg/kg/injection, schedule: Q04DX003 (ip), vehicle: Klucel (hydroxypropylcellulose) (HPC) 104 % of control | endpoint: mean survival time, dose: 50.0 mg/kg/injection, schedule: Q04DX003 (ip), vehicle: Klucel (hydroxypropylcellulose) (HPC) 95 % of control | endpoint: mean survival time, dose: 100.0 mg/kg/injection, schedule: Q01DX009 (ip), vehicle: Klucel (hydroxypropylcellulose) (HPC) 108 % of control | [1] 100 % of control and 103 % of control | endpoint: mean survival time, dose: 200.0 mg/kg/injection, schedule: Q01DX009 (ip), vehicle: Klucel (hydroxypropylcellulose) (HPC) 104 % of control | [2] 97 % of control | endpoint: mean survival time, dose: 400.0 mg/kg/injection, schedule: Q01DX009 (ip), vehicle: Klucel (hydroxypropylcellulose) (HPC) 104 % of control | [3] 95 % of control

CCCCCCCC[N+](CC)(CC)CCOC(=O)C(C1CCCC1)C1CCCC1
inactive: endpoint: mean survival time, dose: 0.25 mg/kg/injection, schedule: Q01DX015 (ip), vehicle: saline 91 % of control | endpoint: mean survival time, dose: 0.5 mg/kg/injection, schedule: Q01DX015 (ip), vehicle: saline 91 % of control | endpoint: mean survival time, dose: 1.0 mg/kg/injection, schedule: Q01DX015 (ip), vehicle: saline 88 % of control | endpoint: mean survival time, dose: 1.25 mg/kg/injection, schedule: Q01DX009 (ip), vehicle: saline 95 % of control | endpoint: mean survival time, dose: 2.0 mg/kg/injection, schedule: Q01DX015 (ip), vehicle: saline 86 % of control | [4] 102 % of control | [5] 94 % of control | [6] 94 % of control

COC(=O)Nc1ccccc1[N+](=O)[O-]
inactive: endpoint: mean survival time, dose: 100.0 mg/kg/injection, schedule: Q04DX003 (ip), vehicle: other 103 % of control | endpoint: mean survival time, dose: 200.0 mg/kg/injection, schedule: Q04DX003 (ip), vehicle: other 101 % of control | endpoint: mean survival time, dose: 400.0 mg/kg/injection, schedule: Q04DX003 (ip), vehicle: other 111 % of control

CN(C)P1(=O)NCCCO1 (configuration not stated)
inactive: [7] 100 % of control | [8] 110 % of control | [9] 109 % of control

CC(=O)Nc1c([N+](=O)[O-])ccc(Cl)c1Cl
inactive: [1] 98 % of control | [2] 97 % of control

NC(N)=N/N=C/c1ccncc1
inactive: endpoint: mean survival time, dose: 15.0 mg/kg/injection, schedule: Q01DX Z (ip), vehicle: saline 104 % of control | endpoint: mean survival time, dose: 25.0 mg/kg/injection, schedule: Q01DX009 (ip), vehicle: saline 104 % of control | endpoint: mean survival time, dose: 30.0 mg/kg/injection, schedule: Q01DX Z (ip), vehicle: saline 91 % of control | endpoint: mean survival time, dose: 50.0 mg/kg/injection, schedule: Q01DX009 (ip), vehicle: saline 101 % of control | endpoint: mean survival time, dose: 60.0 mg/kg/injection, schedule: Q01DX Z (ip), vehicle: saline 107 % of control | endpoint: mean survival time, dose: 60.0 mg/kg/injection, schedule: Q01DX Z (oral), vehicle: saline 100 % of control | [10] 104 % of control | endpoint: mean survival time, dose: 120.0 mg/kg/injection, schedule: Q01DX Z (ip), vehicle: saline 105 % of control | endpoint: mean survival time, dose: 120.0 mg/kg/injection, schedule: Q01DX Z (oral), vehicle: saline 97 % of control | endpoint: mean survival time, dose: 150.0 mg/kg/injection, schedule: Q01DX009 (ip), vehicle: saline 106 % of control | endpoint: mean survival time, dose: 240.0 mg/kg/injection, schedule: Q01DX Z (oral), vehicle: saline 103 % of control

COc1cc(NC(=O)c2ccc(C(=O)Nc3cc(OC)cc4cccnc34)cc2)c2ncccc2c1
inactive: [7] 94 % of control | [8] 100 % of control | [9] 103 % of control

S=C(Nc1ccccc1)Nc1ccc2ccccc2c1
inactive: [1] 100 % of control | [2] 94 % of control | [3] 110 % of control

C=CCSc1ccccc1C
inactive: [7] 95 % of control | [8] 95 % of control

CCC(C1CCC(O)CC1)C(CC)C1CCC(c2ccc(=O)oc2)C1 (configuration not stated)
inactive: endpoint: mean survival time, dose: 25.0 mg/kg/injection, schedule: Q04DX003 (ip), vehicle: saline 100 % of control | endpoint: mean survival time, dose: 50.0 mg/kg/injection, schedule: Q04DX003 (ip), vehicle: saline 103 % of control | endpoint: mean survival time, dose: 100.0 mg/kg/injection, schedule: Q04DX003 (ip), vehicle: saline 103 % of control

NC(=O)c1[nH]nc(C2OC(CO)C(O)C2O)c1O (configuration not stated)
inactive: [4] 115 % of control | [5] 110 % of control | endpoint: mean survival time, dose: 5.0 mg/kg/injection, schedule: Q01DX001 (ip), vehicle: saline 109 % of control | endpoint: mean survival time, dose: 5.0 mg/kg/injection, schedule: Q01DX009 (ip), vehicle: saline 96 % of control | [6] 111 % of control and 123 % of control | endpoint: mean survival time, dose: 6.6 mg/kg/injection, schedule: Q04DX003 (ip), vehicle: saline 107 % of control | endpoint: mean survival time, dose: 10.0 mg/kg/injection, schedule: Q01DX001 (ip), vehicle: saline 113 % of control | endpoint: mean survival time, dose: 10.0 mg/kg/injection, schedule: Q04DX003 (ip), vehicle: saline 113 % of control and 121 % of control | endpoint: mean survival time, dose: 20.0 mg/kg/injection, schedule: Q01DX001 (ip), vehicle: saline 111 % of control | endpoint: mean survival time, dose: 20.0 mg/kg/injection, schedule: Q04DX003 (ip), vehicle: saline 121 % of control | endpoint: median survival time, dose: 0.5 mg/kg/injection, schedule: Q04DX003 (ip), vehicle: saline 108 % of control | endpoint: median survival time, dose: 1.0 mg/kg/injection, schedule: Q04DX003 (ip), vehicle: saline 106 % of control and 107 % of control | endpoint: median survival time, dose: 2.0 mg/kg/injection, schedule: Q04DX003 (ip), vehicle: saline 107 % of control and 112 % of control | endpoint: median survival time, dose: 4.0 mg/kg/injection, schedule: Q04DX003 (ip), vehicle: saline 109 % of control and 118 % of control | endpoint: median survival time, dose: 8.0 mg/kg/injection, schedule: Q04DX003 (ip), vehicle: saline 112 % of control and 121 % of control

O=C(Nc1ccsc1)c1ccccc1
inactive: endpoint: mean survival time, dose: 100.0 mg/kg/injection, schedule: Q01DX001 (ip), vehicle: carboxymethylcellulose (CMC) 110 % of control | endpoint: mean survival time, dose: 177.6 mg/kg/injection, schedule: Q01DX001 (ip), vehicle: carboxymethylcellulose (CMC) 98 % of control | endpoint: mean survival time, dose: 200.0 mg/kg/injection, schedule: Q01DX001 (ip), vehicle: carboxymethylcellulose (CMC) 91 % of control | endpoint: mean survival time, dose: 266.8 mg/kg/injection, schedule: Q01DX001 (ip), vehicle: carboxymethylcellulose (CMC) 100 % of control | endpoint: mean survival time, dose: 400.0 mg/kg/injection, schedule: Q01DX001 (ip), vehicle: carboxymethylcellulose (CMC) 90 % of control | endpoint: mean survival time, dose: 600.0 mg/kg/injection, schedule: Q01DX001 (ip), vehicle: carboxymethylcellulose (CMC) 102 % of control

Ic1cccc2cc3cccc[n+]3cc12
inactive: endpoint: mean survival time, dose: 9.9 mg/kg/injection, schedule: Q01DX Z (ip), vehicle: carboxymethylcellulose (CMC) 102 % of control | [11] 103 % of control | [12] 91 % of control

O=C(NNC(=O)NC1OCC(O)C(O)C1O)Nc1ccccc1 (configuration not stated)
inactive: [13] 97 % of control | [14] 100 % of control | endpoint: mean survival time, dose: 400.0 mg/kg/injection, schedule: Q01DX009 (ip), vehicle: saline with Tween-80 97 % of control

O=C(Nc1ccc(CC2=NCCN2)cc1)c1cccc(C(=O)Nc2ccc(CC3=NCCN3)cc2)c1
inactive: endpoint: mean survival time, dose: 6.5 mg/kg/injection, schedule: Q01DX Z (ip), vehicle: carboxymethylcellulose (CMC) 100 % of control | endpoint: mean survival time, dose: 9.7 mg/kg/injection, schedule: Q01DX Z (ip), vehicle: carboxymethylcellulose (CMC) 93 % of control | [11] 94 % of control | [12] 94 % of control | endpoint: mean survival time, dose: 22.2 mg/kg/injection, schedule: Q01DX Z (ip), vehicle: carboxymethylcellulose (CMC) 95 % of control

Cc1ccc(N)cc1Br
inactive: [7] 102 % of control | [10] 100 % of control | [8] 94 % of control | endpoint: mean survival time, dose: 200.0 mg/kg/injection, schedule: Q01DX009 (ip), vehicle: saline 90 % of control | [9] 94 % of control | endpoint: mean survival time, dose: 400.0 mg/kg/injection, schedule: Q01DX009 (ip), vehicle: saline 103 % of control

N#CC(OC(OC(C#N)c1ccccc1)c1ccccc1)c1ccccc1 (configuration not stated)
inactive: endpoint: mean survival time, dose: 50.0 mg/kg/injection, schedule: Q01DX009 (ip), vehicle: saline with Tween-80 93 % of control | [13] 93 % of control | [14] 90 % of control
